Reference: PubChem BioAssay (NCI)
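Each compound was tested at five concentrations against cells in 96-well plates for 48 hours. Abbreviation: GI50, concentration required for 50% inhibition of growth. TGI denotes the concentration required for complete inhibition of growth.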

Key:
Assay in all cases: NCI tumour cell line growth inhibition, 48 h
[1] = tested on: HL-60(TB) leukemia
[2] = tested on: OVCAR-4 ovarian
[3] = tested on: HS 578T breast
[4] = tested on: NCI/ADR-RES ovarian
[5] = tested on: K-562 leukemia
[6] = tested on: PC-3 prostate
[7] = tested on: SNB-19 CNS
[8] = tested on: UO-31 renal
[9] = tested on: CCRF-CEM leukemia
[10] = tested on: A498 renal

| SMILES | TGI [1] | TGI [2] | TGI [3] | TGI [4] | TGI [5] | TGI [6] | TGI [7] | TGI [8] | TGI [9] | TGI [10] | GI50 [2] | GI50 [3] | GI50 [4] | GI50 [8] | GI50 [10] | GI50 [6] | GI50 [7] |
| --- | --- | --- | --- | --- | --- | --- | --- | --- | --- | --- | --- | --- | --- | --- | --- | --- | --- |
| O=C(O)CCC1(CCC(=O)O)CCCCCCCCC(CCC(=O)O)(CCC(=O)O)C(=O)C1=O | > 100 µM | > 100 µM | > 100 µM | > 100 µM | > 100 µM | > 100 µM | > 100 µM | – | – | – | – | – | – | – | – | – | – |
| Cc1cnc2c(c1)C(=O)N(c1ccc(Br)cc1)S2(=O)=O | > 100 µM | > 100 µM | > 100 µM | > 100 µM | – | > 100 µM | > 100 µM | > 100 µM | > 100 µM | – | – | – | – | – | – | – | – |
| COc1cc2c(c(OC)c1)C(=O)C(=O)C(CC1(C)OCCCO1)=C2 | 4.28 µM | 18.9 µM | – | – | 6.7 µM | – | > 53.2 µM | 25.6 µM | 4.72 µM | 31.3 µM | – | – | – | – | – | – | – |
| N#Cc1c2c(c(Nc3cccc(C(F)(F)F)c3)n3c1nc1ccccc13)CCCC2 | – | > 100 µM | – | 51.8 µM | – | – | – | – | – | 94.9 µM | – | – | – | – | – | – | – |
| COc1cc2cnc3c4cc(O)ccc4ccc3c2cc1OC | > 100 µM | > 100 µM | – | – | > 100 µM | – | > 100 µM | > 100 µM | > 100 µM | – | – | – | – | – | – | – | – |
| CCCCCCc1cc2cc(-c3cn4ccccc4n3)c(=O)oc2cc1O | > 100 µM | 17.5 µM | – | 21.4 µM | > 40.3 µM | 32.7 µM | 26 µM | 20.7 µM | > 100 µM | 50.7 µM | – | – | – | – | – | – | – |
| CCOC(OCC)[C@@H]1C[C@@H]2N(O[C@H](OC3CCCC3(c3ccccc3)c3ccccc3)[C@H](OC(C)=O)[C@@]2(CC)Cc2ccc(OC)c(OC)c2)O1 (some centres undefined) | – | > 100 µM | – | > 100 µM | > 100 µM | > 100 µM | > 100 µM | > 100 µM | > 100 µM | – | – | – | – | – | – | – | – |
| CCOC(=O)C1=C(C)C2C3C(=O)OC(=O)C3C1(C)C1C(=O)OC(=O)C21 (centres undefined) | > 100 µM | > 100 µM | – | – | > 100 µM | – | > 100 µM | > 100 µM | > 100 µM | > 100 µM | – | – | – | – | – | – | – |
| CN(CCO)c1nc(=O)c2c(n1C1OC(CO)C(O)C(O)C1O)CCCC2 (centres undefined) | > 100 µM | – | – | – | > 100 µM | – | > 100 µM | > 100 µM | > 100 µM | – | – | – | – | – | – | – | – |
| COc1c(N2CCCCC2)c2c(=O)c3ccccc3oc2c2c3ccccc3n(C)c12 | > 100 µM | > 100 µM | > 100 µM | > 100 µM | > 100 µM | > 100 µM | > 100 µM | > 100 µM | > 100 µM | – | – | – | – | – | – | – | – |
| CC(C)(C)C1CCC2c3c([nH]c4ccccc34)C3C(=O)N(c4cc(Cl)ccc4Cl)C(=O)C3C2C1 (centres undefined) | – | – | > 100 µM | > 100 µM | > 100 µM | > 100 µM | > 100 µM | > 100 µM | > 100 µM | > 100 µM | – | – | – | – | – | – | – |
| O=C1NC(NNc2ccccc2)=N/C1=C\c1ccco1 | 90.3 µM | 32.7 µM | 74.5 µM | > 100 µM | – | 71.5 µM | > 100 µM | 55.2 µM | > 100 µM | > 100 µM | – | – | – | – | – | – | – |
| CCOC(=O)c1cc(C2CCN(Cc3ccccc3)C2=O)c(C(=O)/C=C(/C)N)[nH]1 (centres undefined) | – | > 100 µM | > 100 µM | > 100 µM | > 100 µM | > 100 µM | > 100 µM | > 100 µM | – | > 100 µM | – | – | – | – | – | – | – |
| CCCC1(N2C(=O)c3ccc4c5c(ccc(c35)C2=O)N(C2(CCC)CCCCC2)C4=O)CCCCC1 | – | > 100 µM | – | > 100 µM | > 100 µM | > 100 µM | > 100 µM | > 100 µM | – | > 100 µM | – | – | – | – | – | – | – |
| C=C1C(=O)O[C@H]2C1C[C@H](O)/C(C)=C/CC[C@@]1(C)O[C@H]21 (some centres undefined) | – | 30.2 µM | 75.2 µM | 33.7 µM | > 100 µM | – | > 100 µM | 28.6 µM | 13.6 µM | – | – | – | – | – | – | – | – |
| N#C/C(=C\c1ccccc1F)C(=O)c1ccccc1 | > 100 µM | > 100 µM | – | – | > 100 µM | – | > 100 µM | > 100 µM | > 100 µM | > 100 µM | – | – | – | – | – | – | – |
| Cc1ccc2nc(-c3nccn3C)cc(C(=O)NC(C)CN(C)C)c2c1 (centres undefined) | > 100 µM | – | > 100 µM | > 100 µM | – | > 100 µM | > 100 µM | > 100 µM | – | > 100 µM | – | – | – | – | – | – | – |
| Cn1cc(-c2csc(-c3cn(CCCN4CCCCC4)c4ccc(Br)cc34)n2)c2cccnc21 | – | 4.19 µM | 5.41 µM | 3.73 µM | – | 3.22 µM | 3.31 µM | 2.89 µM | – | 14 µM | 2.02 µM | 2.09 µM | 1.92 µM | 1.51 µM | 3.69 µM | 1.77 µM | 1.83 µM |
| [O-][N+]1=C(c2ccccc2)/C(=C2/C(c3ccccc3)=[N+]([O-])c3ccccc32)Cc2ccccc21 | > 100 µM | 38.9 µM | – | 34.4 µM | 58.1 µM | 34.9 µM | 44.3 µM | 28.5 µM | 60.1 µM | 21.1 µM | – | – | – | – | – | – | – |
| O=C(N/N=C/c1cc(Cl)cc(Cl)c1[OH2+])c1ccncc1.O=S(=O)([O-])[O-].[Fe+2] | 2.09 µM | – | – | – | 51.4 µM | – | > 100 µM | 31.1 µM | 15.8 µM | – | – | – | – | – | – | – | – |
| COc1cccc2c1C(=O)c1c(O)c3c(c(O)c1C2=O)CC(O)(C(C)=O)CC3OC1OC(COC(C)=O)C(OC(C)=O)C(OC(C)=O)C1OC(C)=O (centres undefined) | > 100 µM | 53.3 µM | 64.8 µM | > 100 µM | > 100 µM | > 100 µM | 42.1 µM | > 100 µM | 0.131 µM | – | – | – | – | – | – | – | – |
| CC(C)C1CCC(=O)CC1CCCCC1CC(=O)CC1O[Si](C)(C)C(C)(C)C (centres undefined) | – | 29.3 µM | 9.89 µM | 21.2 µM | > 34.9 µM | 43.1 µM | 13.2 µM | 20.2 µM | > 22.2 µM | 27.1 µM | – | – | – | – | – | – | – |
| COc1ccc(OC)c(CCc2ccccc2CC(=O)O)c1 | > 100 µM | > 100 µM | – | – | > 100 µM | – | > 100 µM | > 100 µM | > 100 µM | > 100 µM | – | – | – | – | – | – | – |
| CCC/C=C/C=C\C(=O)O[C@@H]1[C@@H](C)[C@]2(O)[C@@H]3C=C(C)C(=O)[C@H]3CC(COC(C)=O)=C[C@H]2[C@@H]2C(C)(C)[C@]12OC(C)=O | 30.5 µM | 51.4 µM | – | 114 µM | 128 µM | – | 114 µM | 92.3 µM | 36.2 µM | 33.3 µM | – | – | – | – | – | – | – |
| CN(C)C1(N(C)C)Oc2c(c(=O)n(C)c(=O)n2C)C(c2ccc(F)cc2)C1(F)F (centres undefined) | – | > 100 µM | – | > 100 µM | – | > 100 µM | > 100 µM | > 100 µM | > 100 µM | > 100 µM | – | – | – | – | – | – | – |
